Results on 13 molecules are retold here after patent US4112105A, “Anti-inflammatory 3-(substituted-amino)-2,1-benzisothiazoles” (Sterling Drug Inc., priority 1977, dated 1978).

As usually defined, the inhibition in vivo is the relative decrease from the control value, in per cent. Broadly, the LD50 is the dose expected to kill half of the subjects tested.

Structures can show the parent of a compound that is named as a salt.

The nature of series [1]: anti-inflammatory activity (test not given). The settings on record: in vivo. The procedure: (§1) Anti-inflammatory activity was determined using (1) the inhibition of carrageenin-induced foot edema test essentially described by Van Arman et al., J. Pharmocol. Exptl. Therap. 150, 328 (1965) as a modification of the procedure of Winter et al., Proc. Soc. Exp. Biol. and Med. 111, 544 (1962) and (2) a modification of the inhibition of adjuvant-induced arthritis test described by Pearson, J. Chronic Diseases 16, 863 (1963) and Glenn et al., Am. J. Vet. Res. 26, 1180 (1965).

Series [2] can be described thus: inhibition of carrageenin-induced foot edema test. The settings on record: for inhibition in vivo at 324 µmol/kg: 0.324 mMole/kg; for inhibition in vivo at 80 µmol/kg: 0.08 mMole/kg. The series is classed as in vivo. The procedure:
as §1
Representative examples of the compounds of this invention have been tested in the carrageenin edema and adjuvant arthritis tests as described hereinabove and found to have anti-inflammatory activity. Test data, given as percent inhibition at a dose expressed in millimoles (mMole/kg) are presented hereinbelow. All test compounds were administered orally.
The data for a number of examples are presented in several separate groups each representing the test results wherein anti-inflammatory activity was measured at one or more dose levels against a single set of controls.

Series [3] in a line: inhibition of adjuvant-induced arthritis test. The settings on record: for inhibition in vivo at 120 µmol/kg: 0.12 mMole/kg; for inhibition in vivo at 324 µmol/kg: 0.324 mMole/kg. The series is classed as in vivo. The procedure: Anti-inflammatory activity was determined using (1) the inhibition of carrageenin-induced foot edema test essentially described by Van Arman et al., J. Pharmocol. Exptl. Therap. […] J. Vet.
All test compounds were administered orally.

Series [4] in a line: acute oral toxicity, standard toxicological test procedures. The settings on record: in vivo; for LD50 at 168 h: acute oral, read-out: 7-day LD50. The procedure:
Acute oral toxicity was determined for Examples 1E and (g) employing standard toxicological test procedures.

Turning to `CCN(CC)CCCC(C)Nc1snc2ccccc12` (centres unmarked) [3-[4-(diethylamino)-1-methylbutylamino]-2,1-benzisothiazole], in series [1], the “anti-inflammatory activity (in words)” value is “useful anti-inflammatory activity”.

The molecule `CCN(CC)CCCC(C)Nc1snc2ccccc12` (centres unmarked) [(g), 3-[4-(diethylamino)-1-methylbutylamino]-2,1-benzisothiazole diphosphate, reference compound] gave an inhibition in vivo at 20 µmol/kg in series [2] (po, 0.02 mMole/kg) of 0%. For the same molecule, the inhibition in vivo at 30 µmol/kg in series [3] (po, 0.03 mMole/kg) came out at 0%. For the same molecule, the inhibition in vivo at 60 µmol/kg in series [3] (po, 0.06 mMole/kg) was 1%. Moreover, in series [3] (po), the inhibition in vivo at 120 µmol/kg was found to be 4%. The inhibition in vivo at 240 µmol/kg in series [3] (po, 0.24 mMole/kg) stood at 0%. In addition, in series [4], the LD50 at 168 h was found to be 1730 mg/kg.

With `CCN(CC)CCCC(C)Nc1snc2cc(Cl)ccc12` (centres unmarked) [Example 1D, 6-chloro-3-[4-(diethylamino)-1-methylbutylamino]-2,1-benzisothiazole], the “anti-inflammatory activity in carrageenin edema assay (in words)” value in series [2] (in vivo) is “high degree of anti-inflammatory activity”. Besides, the “Carrageenin edema % inhibition” value in series [2] (oral, 0.03 mMole/kg) stood at 19%. Also, in series [2] (po, 0.09 mMole/kg), the inhibition in vivo at 90 µmol/kg was determined as 14%. Besides, the inhibition in vivo at 270 µmol/kg in series [2] (po, 0.27 mMole/kg) came to 29%. Further, the “anti-inflammatory activity in adjuvant arthritis assay (in words)” value in series [3] (in vivo) is listed as “high degree of anti-inflammatory activity”. Also, in series [3] (po), the inhibition in vivo at 120 µmol/kg came out at 65%. Further, the “toxicity (in words)” value in series [4] is “low toxicity”.

Consider `CCN(CC)CCCC(C)Nc1snc2cc(Cl)ccc12` (centres unmarked) [Example 1E, 6-chloro-3-[4-(diethylamino)-1-methylbutylamino]-2,1-benzisothiazole diphosphate], for which the “Carrageenin edema % inhibition” value in series [2] (oral, 0.03 mMole/kg) was 4%; in series [2] (oral, 0.09 mMole/kg), 25%; in series [2] (oral, 0.27 mMole/kg), 39%. Besides, the “side effects (footnote c)” value in series [2] (oral, 0.64 mMole/kg) is given as “hypothermia”. This molecule also registered an inhibition in vivo at 640 µmol/kg in series [2] (po, 0.64 mMole/kg) of 60%. The “toxicity in adjuvant arthritis test” value in series [3] (oral, 0.24 mMole/kg) was “toxic”. The median lethal dose (LD50) at 168 h in series [4] is 1430 mg/kg.

As for `CN(C)CCCNC(=S)c1ccc(Cl)cc1[N+](=O)[O-]` [Example 6B, 4-chloro-N-[3-(dimethylamino)propyl]-2-nitrothiobenzamide hydrochloride], the inhibition in vivo at 324 µmol/kg in series [2] (po) stood at 39%; in series [3] (po) it was 8%.

The molecule `CN(C)CCCNc1snc2cc(Cl)ccc12` [Example 6C, 6-chloro-3-{[3-(dimethylamino)propyl]amino}-2,1-benzisothiazole dihydrochloride] came in with an inhibition in vivo at 30 µmol/kg in series [2] (po, 0.03 mMole/kg) of 0%. Further, the inhibition in vivo at 90 µmol/kg in series [2] (po, 0.09 mMole/kg) came out at 24%. In addition, the inhibition in vivo at 270 µmol/kg in series [2] (po, 0.27 mMole/kg) was 41%. In addition, the figures for the inhibition in vivo at 324 µmol/kg in series [2] (po) and in series [3] (po) were 35% and 0%, respectively.

As to `CN(C)CCCCNC(=S)c1ccc(Cl)cc1[N+](=O)[O-]` [Example 7B, 4-chloro-N-[4-(dimethylamino)butyl]-2-nitrothiobenzamide], in series [2] (oral, 1.11 mMole/kg), the “side effects (footnote d)” value is recorded as “salivation”. Also, the inhibition in vivo at 1110 µmol/kg in series [2] (po, 1.11 mMole/kg) was determined as 63%. Besides, in series [3] (po, 0.80 mMole/kg), the inhibition in vivo at 800 µmol/kg was 15%.

In turn, `CN(C)CCCCNc1snc2cc(Cl)ccc12` [Example 7C, 6-chloro-3-{[4-(dimethylamino)butyl]amino}-2,1-benzisothiazole] returned an inhibition in vivo at 30 µmol/kg in series [2] (po, 0.03 mMole/kg) of 0%. In addition, in series [2] (po, 0.09 mMole/kg), the inhibition in vivo at 90 µmol/kg came out at 9%. The molecule further yielded an inhibition in vivo at 270 µmol/kg in series [2] (po, 0.27 mMole/kg) of 32%. Further, the inhibition in vivo at 324 µmol/kg in series [3] (po) was found to be 25%.

As for `CN1CCN(c2snc3ccc(Cl)cc23)CC1` [Example 8, 5-chloro-3-(4-methyl-1-piperazinyl)-2,1-benzisothiazole], in series [2] (po), the inhibition in vivo at 80 µmol/kg stood at 15% and the inhibition in vivo at 324 µmol/kg was 51%. In addition, the inhibition in vivo at 324 µmol/kg in series [3] (po) is 0%.

`CCN(CCO)CCCC(C)Nc1snc2cc(Cl)ccc12` (centres unmarked) [Example 11, 6-chloro-3-<{4-[N-ethyl-N-(2-hydroxyethyl)amino]-1-methylbutyl}amino>-2,1-benzisothiazole 1,5-naphthalenedisulfonate]: in series [2] (po), the inhibition in vivo at 80 µmol/kg was 18% and the inhibition in vivo at 324 µmol/kg was 38%. Further, in series [3] (po, 0.24 mMole/kg), the inhibition in vivo at 240 µmol/kg was found to be 54%. The inhibition in vivo at 320 µmol/kg in series [3] (po, 0.32 mMole/kg) came out at 67%. The inhibition in vivo at 324 µmol/kg in series [3] (po) amounted to 36%. Also, the inhibition in vivo at 400 µmol/kg in series [3] (po, 0.40 mMole/kg) was found to be 71%.

In series [2] (po), `CCN(CC)CC(O)CNc1snc2cc(Cl)ccc12` (centres unmarked) [Example 12, 6-chloro-3-{[3-(diethylamino)-2-hydroxypropyl]amino}-2,1-benzisothiazole] displayed an inhibition in vivo at 80 µmol/kg of 14% and an inhibition in vivo at 324 µmol/kg of 35%. Moreover, the inhibition in vivo at 324 µmol/kg in series [3] (po) is 16%.

In series [2] (po), `CCN(CC)Cc1cc(Nc2snc3ccc(Cl)cc23)ccc1O` [Example 14, 5-chloro-3-{[3-(diethylamino)methyl-4-hydroxyphenyl]amino}-2,1-benzisothiazole] gave an inhibition in vivo at 80 µmol/kg of 22% and an inhibition in vivo at 324 µmol/kg of 72%. For the same molecule, in series [3] (po, 0.08 mMole/kg), the inhibition in vivo at 80 µmol/kg amounted to 0%.

In series [2] (po), `CCN(CC)Cc1cc(Nc2snc3ccccc23)ccc1O` [Example 16, 3-{[3-(diethylamino)methyl-4-hydroxyphenyl]amino}-2,1-benzisothiazole] gave an inhibition in vivo at 80 µmol/kg of 2% and an inhibition in vivo at 324 µmol/kg of 55%. For the same molecule, the inhibition in vivo at 324 µmol/kg in series [3] (po) came to 18%.
